The term IC50 denotes the concentration at which inhibition is half-maximal.

The record followed here is patent publication US11571480B2, “Multi-ligand drug conjugates and uses thereof” (priority 2015, dated 2023).

For series [1], the system named is KB (folate receptor positive cell). As to the kind of experiment: Endocytosis test of conjugate LDC10B (FITC conjugates, confocal microscope). Set-up: endocytosis after pre-incubation with free Folate: dose or concentration left out as unconfirmed. Type of series: cell-based, human. Here is the method:
(§1) The involved conjugates are as follows: Folate-FITC (FITC-ACP-Lys (Folate)-OH), 10B-FITC, and 10A-FITC.
(§2) Culture medium: RPMI 1640 Medium, no folic acid
(§3) 1) human nasopharyngeal cancer cell line KB, melanoma cell line A375, human lung cancer cell H460, ovarian cancer cell SKOV3, breast cancer cell line HCC1954 were incubated at 37° C., 5% CO2 in RPMI 1640 medium containing 10% fetal bovine serum, the cells were passaged every 2-3 days.
(§4) 2) human nasopharyngeal cancer cell line KB, melanoma cell line A375, human lung cancer cell H460, ovarian cancer cell SKOV3, breast cancer cell line HCC1954 were plated at 1×10^3 cells per well (96-well plate) and incubated for 8-12 h at 37° C., 5% CO2.
(§5) 3) 1 μM of FITC conjugates or control was added to the cells in the plate and incubated for 10-15 min at 37° C. The culture medium in the wells was then removed by aspiration and the cells were washed with PBS for three times.
(§6) 4) cells were then imaged with confocal microscope (brand) to visualize endocytosis.

The test system of series [2] is A375 (folate receptor negative cell). The series is described as above. The settings on record: 1 μM FITC conjugate, 10-15 min at 37° C. Type of series: cell-based. Here is the method: as §1, §2, §3, §4, §5, §6
In series [3] the test system is human lung cancer cell H1299. As to the kind of experiment: Cytotoxicity test of conjugate LDC10H. Type of series: cell-based. The settings on record: H1299, incubated 15-30 min, then 2-3 days. As to the method: as §2
(§7) 1) human lung cancer cell H1299, ovarian cancer cell SKOV3, breast cancer cell line HCC1954, and human lung cancer cell H460 were incubated at 37° C., 5% CO2 in RPMI 1640 medium containing 10% fetal bovine serum, the cells were passaged every 2-3 days.
(§8) 2) human lung cancer cell H1299, ovarian cancer cell SKOV3, breast cancer cell line HCC1954, and human lung cancer cell H460 were plated at 1×10^3 cells per well (96-well plate) and incubated for 8-12 h at 37° C., 5% CO2.
(§9) 3) Stock solutions of LDC conjugates or control were prepared in PBS solution. 100 μL/well of serially diluted LDC conjugates or control was added to the cells in the plate and incubated for 15-30 min at 37° C., 5% CO2. The culture medium in the wells was then removed by aspiration and the cells were incubated in fresh culture medium without conjugates (150 μL/well) for 2-3 days at 37° C., 5% CO2.
(§10) 4) CellTiter 96® Aqueous One Solution Cell Proliferation Assay (Promega) was added to each well to measure the amount of […] cells, and the plate was incubated in an incubator for 1 h at 37° C., 5% CO2.
(§11) 5) the plate was read at 490 nm on a microplate reader, and the cell survivals were compared for cells with or without the treatment of LDC conjugates. The LDC drug concentrations that are required for 50% cell death (IC50 values) were determined.

Series [4] concerns human lung cancer cell H460. Nature of the series: Cytotoxicity test of conjugate LDC10H. The settings on record: H460, incubated 15-30 min, then 2-3 days. Type of series: cell-based. As to the method: as §2, §7, §8, §9, §10, §11
The test system of series [5] is human embryonic kidney cell 293A. As to the kind of experiment: Cytotoxicity test of conjugate LDC11B. Type of series: cell-based. The settings on record: incubated 15-30 min, then 2-3 days. As to the method: as §2
(§12) 1) human lung cancer cell H460, ovarian cancer cell SKOV3, human embryonic kidney cell 293A were incubated at 37° C., 5% CO2 in RPMI 1640 medium containing 10% fetal bovine serum, the cells were passaged every 2-3 days.
(§13) 2) human lung cancer cell H460, ovarian cancer cell SKOV3, human embryonic kidney cell 293A were plated at 1×10^3 cells per well (96-well plate) and incubated for 8-12 h at 37° C., 5% CO2.
as §9, §10
(§14) 5) The plate was read at 490 nm on a microplate reader, and the cell survivals were compared for cells with or without the treatment of LDC conjugates. The LDC drug concentrations that are required for 50% cell death (IC50 values) were determined.

Series [6] relates to human lung cancer cell H460. As to the kind of experiment: Cytotoxicity test of conjugate LDC11B. Format: cell-based. The settings on record: H460, incubated 15-30 min, then 2-3 days. As to the method:
as §2, §12, §13, §9, §10, §14

Series [7] relates to melanoma cell line A375. Nature of the series: Cytotoxicity test of conjugate LDC10B. Format: cell-based. To be noted: A375, Incubation Time 15 min. As to the method:
as §2
(§15) 1) human nasopharyngeal cancer cell line KB, melanoma cell line A375, human lung cancer cell H1299, chronic myeloid leukemia cell line K562, human lung cancer cell H460, ovarian cancer cell SKOV3, breast cancer cell line HCC1954, human gastric cancer cell N87, and human breast cancer cell SK-BR-3 were incubated at 37° C., 5% CO2 in RPMI 1640 medium containing 10% fetal bovine serum, the cells were passaged every 2-3 days.
(§16) 2) human nasopharyngeal cancer cell line KB, melanoma cell line A375, human lung cancer cell H1299, chronic myeloid leukemia cell line K562, human lung cancer cell H460, ovarian cancer cell SKOV3, breast cancer cell line HCC1954, human gastric cancer cell N87, and human breast cancer cell SK-BR-3 were plated at 1×10^3 cells per well (96-well plate) and incubated for 8-12 h at 37° C., 5% CO2.
(§17) 3) Stock solutions of LDC conjugates or controls were prepared in PBS solution. 100 μL/well of serially diluted LDC conjugates or controls was added to the test cells in the plates and incubated for 15-30 min at 37° C., 5% CO2. The culture medium in the wells was then removed by aspiration and the test cells were incubated in fresh culture medium without conjugates (150 μL/well) for 2-3 days at 37° C., 5% CO2.
(§18) 4) CellTiter 96® Aqueous One Solution Cell Proliferation Assay (Promega) was added to each well to measure the amount of […] cells, and each plate was incubated in an incubator for 1 h at 37° C., 5% CO2.
(§19) 5) Each plate was read at 490 nm on a microplate reader, and the cell survivals were compared for test cells with or without the treatment of LDC conjugates. The LDC drug concentrations that are required for 50% cell death (IC50 values) were determined.

For series [8], the system named is human breast cancer cell SK-BR-3. As to the kind of experiment: Cytotoxicity test of conjugate LDC10B. The settings on record: SK-BR-3, Incubation Time 30 min. Format: cell-based. Here is the method: as §2, §15, §16, §17, §18, §19
Series [9] deals with human lung cancer cell H1299. As to the kind of experiment: Cytotoxicity test of conjugate LDC10B. Type of series: cell-based. To be noted: H1299, Incubation Time 30 min. As to the method: as §2, §15, §16, §17, §18, §19
Series [10] has as its system human lung cancer cell H460. As to the kind of experiment: Cytotoxicity test of conjugate LDC10B. Type of series: cell-based. To be noted: H460, Incubation Time 30 min. As to the method: as §2, §15, §16, §17, §18, §19
Series [11] concerns chronic myeloid leukemia cell line K562. Nature of the series: Cytotoxicity test of conjugate LDC10B. Format: cell-based. The settings on record: K562, Incubation Time 30 min. Here is the method:
as §2, §15, §16, §17, §18, §19

The test system of series [12] is human nasopharyngeal cancer cell line KB. Nature of the series: Cytotoxicity test of conjugate LDC10B. Type of series: cell-based. The settings on record: Incubation Time 15 min. Here is the method:
as §2, §15, §16, §17, §18, §19

Series [13] deals with human gastric cancer cell N87. As to the kind of experiment: Cytotoxicity test of conjugate LDC10B. The settings on record: N87, Incubation Time 30 min. Format: cell-based. As to the method:
as §2, §15, §16, §17, §18, §19

Series [14] concerns ovarian cancer cell SKOV3. As to the kind of experiment: Cytotoxicity test of conjugate LDC10H. Format: cell-based, human. To be noted: SKOV3, incubated 15-30 min, then 2-3 days. As to the method:
as §2, §7, §8, §9, §10, §11

The test system of series [15] is breast cancer cell line HCC1954. As to the kind of experiment: Cytotoxicity test of conjugate LDC10H. Type of series: cell-based, human. The settings on record: HCC1954, incubated 15-30 min, then 2-3 days. Here is the method:
as §2, §7, §8, §9, §10, §11

The subject of series [16] is ovarian cancer cell SKOV3. As to the kind of experiment: Cytotoxicity test of conjugate LDC10B. Type of series: cell-based, human. To be noted: SKOV3, Incubation Time 30 min. Here is the method:
as §2, §15, §16, §17, §18, §19

For series [17], the system named is breast cancer cell line HCC1954. As to the kind of experiment: Cytotoxicity test of conjugate LDC10B. To be noted: HCC1954, Incubation Time 30 min. Format: cell-based, human. As to the method: as §2, §15, §16, §17, §18, §19
Series [18] concerns ovarian cancer cell SKOV3. As to the kind of experiment: Cytotoxicity test of conjugate LDC11B. Type of series: cell-based, human. To be noted: SKOV3, incubated 15-30 min, then 2-3 days. Here is the method: as §2, §12, §13, §9, §10, §14
For series [19], the system named is melanoma cell line A375. As to the kind of experiment: Cytotoxicity test of conjugate LDC1013. Format: cell-based. To be noted: A375, incubated 15-30 min, then 2-3 days. As to the method: as §2
(§20) 1) human nasopharyngeal cancer cell line KB, melanoma cell line A375, and human lung cancer cell H460 were incubated at 37° C., 5% CO2 in RPMI 1640 medium containing 10% fetal bovine serum, the cells were passaged every 2-3 days.
(§21) 2) human nasopharyngeal cancer cell line KB, melanoma cell line A375, and human lung cancer cell H460 were plated at 1×10^3 cells per well (96-well plate) and incubated for 8-12 h at 37° C., 5% CO2.
as §9, §10, §11

The test system of series [20] is human lung cancer cell H460. As to the kind of experiment: Cytotoxicity test of conjugate LDC1013. To be noted: H460, incubated 15-30 min, then 2-3 days. Type of series: cell-based. Here is the method:
as §2, §20, §21, §9, §10, §11

Series [21] concerns human nasopharyngeal cancer cell line KB. As to the kind of experiment: Cytotoxicity test of conjugate LDC1013. Type of series: cell-based. To be noted: incubated 15-30 min, then 2-3 days. As to the method: as §2, §20, §21, §9, §10, §11
Series [22] has the same test system. Nature of the series: Cytotoxicity test of conjugate LDC13B. Format: cell-based. The settings on record: KB, incubated 15-30 min, then 2-3 days. As to the method:
as §2
1) human nasopharyngeal cancer cell line KB, human colon carcinoma HCT-116, human prostatic cancer cell PC-3, human gastric cancer cell line GTL-16, human endometrial cancer cell HEC-1A, and human gastric cancer cell N87 were incubated at 37° C., 5% CO2 in RPMI 1640 medium containing 10% fetal bovine serum, the cells were passaged every 2-3 days.
2) human nasopharyngeal cancer cell line KB, human colon carcinoma HCT-116, human prostatic cancer cell PC-3, human gastric cancer cell line GTL-16, human endometrial cancer cell HEC-1A, and human gastric cancer cell N87 were plated at 1×10^3 cells per well (96-well plate) and incubated for 8-12 h at 37° C., 5% CO2.
as §9, §10, §11

As for FITC-ACP-Lys (Folate)-OH [Folate-FITC], the “endocytosis (enters cells)” value was “enters KB cells” in [1] (1 μM FITC conjugate, 10-15 min at 37° C., KB cells) and “but not A375 cells” in series [2]. The “endocytosis after pre-incubation with free Folate” value in [1] (pre-incubating KB cells with (50 fold excess of conjugate) free Folate, data not shown) is “completely blocked”.

On to “Folate-(PEG)3-MC-Val-Cit-PAB-MMAE [LDC1]”, for which the concentration for half-maximal inhibition (IC50) in series [3] was determined as 0.186 µM; in [4], 0.137 µM; in series [5], 0.715 µM; in [6], 0.526 µM; in the series with melanoma cell line A375 [7], 10 µM; in series [8], 0.0982 µM. Moreover, the IC50 in series [9] amounted to 0.262 µM; in series [10], 0.192 µM; in series [11], 0.0931 µM; in series [12], 15 µM; in [13] it was 0.239 µM; in series [14], 0.201 µM. Moreover, the IC50 in [15] amounted to 0.0779 µM; in [16] it was 0.102 µM; in series [17], 0.0944 µM; in [18], 0.295 µM; with melanoma cell line A375 [19], 37 µM; in series [20], 9.4 µM. Also, the IC50 is 4 µM in series [21] and 0.065 µM in series [22].
